According to patent US20230382904A1, “SUBSTITUTED 4-([1,2,4]TRIAZOLO[1,5-a]PYRIDIN-6-YL)THIOPHENE-2-CARBOXAMIDE DERIVATIVES AND USE THEREOF” (The Johns Hopkins University, priority 2020, published 2023):

Experiments:
DLK = DLK (Homo sapiens (Human), UniProt Q12852); test: DLK biochemical assay (TR-FRET, MKK7 phosphorylation)
Description: DLK assay is a biochemical assay format designed to screen for inhibitors of DLK. Enzymatic activity of DLK was measured by monitoring phosphorylation of the physiological substrate MKK7 (MAP2K7, Dual specificity mitogen-activated protein kinase kinase 7). Phosphorylation was detected by a TR-FRET system whereby His-tagged MKK7 was labeled by a XL665-labeled anti-His antibody (FRET acceptor, emission 665 nm). DLK phosphorylates MKK7 at T275/S277, which was detected by an Eu-labeled anti-phospho-MKK7 (T275/S277) antibody (F RET donor, excitation 340 nm). Phosphorylation of MKK7 results in an increased TR-FRET signal (Ratio XL665-channel/Eu-channel) and inhibition of enzymatic activity of DLK decreases the TR-FRET signal.
Assay Protocol for 1536 MTP format: test compounds were predispensed (60 nl) in test plates; +3 μl DLK solution (10 nM DLK, catalytic domain, Carna Biosiences, 0.6 mM DTT in assay buffer); +2 μl substrate solution (15 nM MKK7, LDB; 60 μM ATP; 0.4 mM DTT in assay buffer); 90 min incubation at RT; +2 μl detection mix (5 nM XL665-labeled anti-His antibody, Cisbio; 0.1 nM Eu-labeled anti-phospho-MKK7 (T275/S277), Cisbio/Millipore in detection buffer); 16 h incubation at 37° C.; endpoint measurement BMG (HTRF).
Assay Protocol for 384 low volume MTP format: 1 μl of test compounds were pipetted into test plate; +5 μl DLK solution (10 nM DLK, catalytic domain, Carna Biosiences in assay buffer); +5 μl substrate solution (15 nM MKK7, LDB; 60 μM ATP, in assay buffer); 90 min incubation at RT; +9 μl detection mix (20 nM XL665-labeled anti-His antibody, Cisbio; 0.4 nM Eu-labeled anti-phospho-MKK7 (T275/S277), Cisbio/Millipore in detection buffer); 16 h incubation at 4° C.; endpoint measurement BMG (HTRF).
(§1) All indicated concentrations final concentrations.
Assay buffer (384 format): 50 mM Hepes pH 7.5, 10 mM MgCl2, 1 mM EGTA, 1 mM DTT, 0,01% Triton X-100, 0.01% BSA, 1:500 Smart Block.
(§2) Detection buffer: 25 mM Tris/HCl pH 7.5, 100 mM EDTA, 100 mM NaCl, 200 mM KF, 0.01% Tween 20, 1:500 Smart Block.

LZK = LZK (Homo sapiens (Human), UniProt O43283); test: LZK biochemical assay (TR-FRET, MKK7 phosphorylation)
Description: LZK assay is a biochemical assay format designed to screen for inhibitors of LZK. Enzymatic activity of LZK was measured by monitoring phosphorylation of the physiological substrate MKK7 (MAP2K7, Dual specificity mitogen-activated protein kinase kinase 7). Phosphorylation was detected by a TR-FRET system whereby His-tagged MKK7 was labeled by a XL665-labeled anti-His antibody (FRET acceptor, emission 665 nm). LZK phosphorylates MKK7 at T275/S277 which were detected by an Eu-labeled anti-phospho-MKK7 (T275/S277) antibody (FRET donor, excitation 340 nm). Phosphorylation of MKK7 results in an increased TR-FRET signal (Ratio XL665-channel/Eu-channel) and inhibition of enzymatic activity of LZK decreases the TR-FRET signal.
Assay Protocol for 384 low volume MTP format: 1 μl of test compound was pipetted into test plate; +5 μl LZK solution (10 nM LZK, catalytic domain, Carna Biosiences in assay buffer); +5 μl substrate solution (15 nM MKK7, LDB; 15 μM ATP, in assay buffer); 90 min incubation at RT; +5 μl detection mix (20 nM XL665-labeled anti-His antibody, Cisbio; 0.4 nM Eu-labeled anti-phospho-MKK7 (T275/S277), Cisbio/Millipore in detection buffer), 16 h incubation at 32° C.; endpoint measurement BMG (HTRF).
as §1
Assay buffer (384 format): 50 mM Hepes pH 7.5, 10 mM MgCl2, 1 mM EGTA, 1 mM DTT, 0.01% Triton X-100, 0.01% BSA, 1:500 Smart Block.
as §2

LZK, sequence (O43283 168-409): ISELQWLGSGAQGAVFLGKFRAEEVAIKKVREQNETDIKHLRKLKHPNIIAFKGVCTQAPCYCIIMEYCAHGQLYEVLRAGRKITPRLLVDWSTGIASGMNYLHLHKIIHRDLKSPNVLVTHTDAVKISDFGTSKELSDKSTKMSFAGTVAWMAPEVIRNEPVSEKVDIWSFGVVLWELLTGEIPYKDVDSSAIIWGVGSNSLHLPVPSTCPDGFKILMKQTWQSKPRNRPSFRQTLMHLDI
DLK, sequence (Q12852 1-520): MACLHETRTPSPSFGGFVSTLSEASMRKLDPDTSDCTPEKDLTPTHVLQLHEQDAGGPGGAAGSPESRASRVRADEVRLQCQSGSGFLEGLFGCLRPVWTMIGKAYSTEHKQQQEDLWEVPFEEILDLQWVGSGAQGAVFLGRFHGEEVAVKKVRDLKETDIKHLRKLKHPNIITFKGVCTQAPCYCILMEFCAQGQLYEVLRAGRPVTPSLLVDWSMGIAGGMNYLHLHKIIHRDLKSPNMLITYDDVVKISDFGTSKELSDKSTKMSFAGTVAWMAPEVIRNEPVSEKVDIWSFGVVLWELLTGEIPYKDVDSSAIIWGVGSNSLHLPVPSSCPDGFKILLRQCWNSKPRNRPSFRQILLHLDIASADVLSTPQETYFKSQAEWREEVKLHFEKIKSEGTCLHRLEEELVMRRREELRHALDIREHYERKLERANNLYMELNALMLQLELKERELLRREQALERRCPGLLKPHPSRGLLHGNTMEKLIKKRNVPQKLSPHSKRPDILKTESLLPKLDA

SMILES | IC50 (DLK) [µM] | IC50 (LZK) [µM]
CC(NC(=O)c1cc(-c2csc(C(=O)N[C@@H](C)c3ccccc3)c2)cn2nc(N)nc12)C(F)(F)F (single isomer, unassigned) [Compound 72] | 0.089 | 6.2
CC[C@H](NC(=O)c1cc(-c2cc(C(=O)NC(C)CF)c3nc(N)nn3c2)cs1)c1ccc(F)cc1 (single isomer, unassigned) [Compound 144-2] | 0.023 | 0.2
C[C@H]1CCC[C@@H](NC(=O)c2cc(-c3ccc4nc(N)nn4c3)cs2)C1 (single isomer, unassigned) [Compound 165] | 0.88 | > 30
C[C@H]1CCC[C@H](NC(=O)c2cc(-c3ccc4nc(N)nn4c3)cs2)C1 (single isomer, unassigned) [Compound 198] | 1.25 | > 30
C[C@H]1CCC[C@H](NC(=O)c2cc(-c3ccc4nc(N)nn4c3)cs2)C1 (single isomer, unassigned) [Compound 199] | 1.2 | > 30
C[C@H]1CCC[C@@H](NC(=O)c2cc(-c3ccc4nc(N)nn4c3)cs2)C1 (single isomer, unassigned) [Compound 200] | 0.56 | > 30
COC[C@H](NC(=O)c1cc(-c2cc(C(=O)NC(C)C)c3nc(N)nn3c2)cs1)c1ccccc1 (stereo in doubt) [Compound 91] | 0.0033 | 0.048
CN(C)C(=O)c1cc(-c2csc(C(=O)NCc3ccc(F)cc3)c2)cn2nc(N)nc12 [Compound 1] | 20 | > 30
COc1cccc(CNC(=O)c2cc(-c3cc(C(=O)N(C)C)c4nc(N)nn4c3)cs2)c1 [Compound 2] | 18 | > 30
CCNC(=O)c1cc(-c2csc(C(=O)NCc3ccccc3)c2)cn2nc(N)nc12 [Compound 5] | 0.16 | 1.2
CCNC(=O)c1cc(-c2csc(C(=O)NCc3cccc(OC)c3)c2)cn2nc(N)nc12 [Compound 6] | 0.084 | 1.1
CCNC(=O)c1cc(-c2csc(C(=O)NCc3ccc(F)cc3)c2)cn2nc(N)nc12 [Compound 7] | 0.087 | 0.48
CNC(=O)c1cc(-c2csc(C(=O)NCc3cccc(OC)c3)c2)cn2nc(N)nc12 [Compound 8] | 0.14 | 2.2
CNC(=O)c1cc(-c2csc(C(=O)NCc3ccc(F)cc3)c2)cn2nc(N)nc12 [Compound 9] | 0.13 | 1.2
CNC(=O)c1cc(-c2csc(C(=O)NCc3ccccc3)c2)cn2nc(N)nc12 [Compound 10] | 0.12 | 0.99
CC(C)NC(=O)c1cc(-c2csc(C(=O)NCc3ccccc3)c2)cn2nc(N)nc12 [Compound 11] | 0.017 | 0.09
CC(C)NC(=O)c1cc(-c2csc(C(=O)NC3CCCCC3)c2)cn2nc(N)nc12 [Compound 12] | 0.021 | 0.4
COc1cccc(CNC(=O)c2cc(-c3cc(C(=O)NC(C)(C)C)c4nc(N)nn4c3)cs2)c1 [Compound 13] | 0.034 | 0.14
CC(C)(C)NC(=O)c1cc(-c2csc(C(=O)NC3CCCCC3)c2)cn2nc(N)nc12 [Compound 14] | 0.034 | 0.27
CC(C)(C)NC(=O)c1cc(-c2csc(C(=O)NCc3ccc(F)cc3)c2)cn2nc(N)nc12 [Compound 15] | 0.058 | 0.15
CC(C)(C)NC(=O)c1cc(-c2csc(C(=O)NCc3ccccc3)c2)cn2nc(N)nc12 [Compound 16] | 0.037 | 0.13
C[C@H](NC(=O)c1cc(-c2cc(C(=O)NC(C)(C)C)c3nc(N)nn3c2)cs1)c1ccc(F)cc1 [Compound 17] | 0.031 | 0.15

SMILES | IC50 (DLK) [µM] | IC50 (LZK) [µM]
C[C@H](NC(=O)c1cc(-c2cc(C(=O)NC(C)(C)C)c3nc(N)nn3c2)cs1)c1ccccc1 [Compound 18] | 0.012 | 0.11
CC(C)NC(=O)c1cc(-c2csc(C(=O)N[C@@H](C)c3ccccc3)c2)cn2nc(N)nc12 [Compound 20] | 0.00632 | 0.122
C[C@@H](CO)NC(=O)c1cc(-c2csc(C(=O)NCc3ccccc3)c2)cn2nc(N)nc12 [Compound 21] | 0.0093 | 0.04
Nc1nc2c(C(=O)NC3CCNC3)cc(-c3csc(C(=O)NCc4ccc(F)cc4)c3)cn2n1 (centres unmarked) [Compound 22] | 0.185 | 0.65
CC(C)(C)NC(=O)c1cc(-c2csc(C(=O)NCc3nc4ccccc4o3)c2)cn2nc(N)nc12 [Compound 23] | 0.3 | 0.63
COCCNC(=O)c1cc(-c2csc(C(=O)NCc3ccc(F)cc3)c2)cn2nc(N)nc12 [Compound 24] | 0.069 | 0.63
C[C@H](NC(=O)c1cc(-c2cc(C(=O)N[C@@H](C)CO)c3nc(N)nn3c2)cs1)c1ccccc1 [Compound 25] | 0.00461 | 0.061
C[C@H](NC(=O)c1cc(-c2cc(C(=O)N[C@@H](C)CO)c3nc(N)nn3c2)cs1)c1ccc(F)cc1 [Compound 26, 2-Amino-6-(5-{[(1S)-1-(4-fluorophenyl)ethyl]carbamoyl}thiophen-3-yl)-N-[(2S)-1-hydroxypropan-2-yl][1,2,4]triazolo[1,5-a]pyridine-8-carboxamide] | 0.0064 | 0.068
CC(NC(=O)c1cc(-c2csc(C(=O)NCc3ccc(F)cc3)c2)cn2nc(N)nc12)C(F)(F)F (centres unmarked) [Compound 27] | 0.058 | 0.099
C[C@@H](CO)NC(=O)c1cc(-c2csc(C(=O)NCc3ccc(F)cc3)c2)cn2nc(N)nc12 [Compound 30] | 0.016 | 0.045
COc1cccc(CNC(=O)c2cc(-c3cc(C(=O)N[C@@H](C)CO)c4nc(N)nn4c3)cs2)c1 [Compound 31] | 0.013 | 0.17
CC(C)NC(=O)c1cc(-c2csc(C(=O)NCc3nc4ccccc4o3)c2)cn2nc(N)nc12 [Compound 35] | 0.032 | 0.12
Nc1nc2c(C(=O)NC3CCNC3)cc(-c3csc(C(=O)NCc4ccccc4)c3)cn2n1 (centres unmarked) [Compound 36] | 0.23 | 0.84
COc1cccc(CNC(=O)c2cc(-c3cc(C(=O)NC4CCNC4)c4nc(N)nn4c3)cs2)c1 (centres unmarked) [Compound 37] | 0.22 | 1.25
Nc1nc2c(C(=O)NC3CNC(=O)C3)cc(-c3csc(C(=O)NCc4ccccc4)c3)cn2n1 (centres unmarked) [Compound 38] | 0.017 | 0.13
C[C@@H](CO)NC(=O)c1cc(-c2csc(C(=O)NC3CCCCC3)c2)cn2nc(N)nc12 [Compound 39] | 0.0375 | 0.59
C[C@@H](CO)NC(=O)c1cc(-c2csc(C(=O)NCc3nc4ccccc4o3)c2)cn2nc(N)nc12 [Compound 40] | 0.039 | 0.38
NC(=O)c1cc(-c2csc(C(=O)NCc3ccc(F)cc3)c2)cn2nc(N)nc12 [Compound 42] | 0.07 | 0.48
C[C@H](NC(=O)c1cc(-c2cc(C(=O)NC3CC3)c3nc(N)nn3c2)cs1)c1ccccc1 [Compound 44] | 0.047 | 1.4
C[C@H](NC(=O)c1cc(-c2cc(C(=O)NC3CC3)c3nc(N)nn3c2)cs1)c1ccc(F)cc1 [Compound 45] | 0.024 | 0.43
Nc1nc2c(C(=O)NC3CC3)cc(-c3csc(C(=O)NCc4ccc(F)cc4)c3)cn2n1 [Compound 46] | 0.36 | 1.2
